From patent publication US4999424A, “GAR transformylase inhibitor” (The Pennsylvania State University, priority 1988, dated 1991) come the findings set out here.

Structures are written as SMILES. pKd: −log10 of the molar value.

Assay [1] addresses T1, E. coli GAR TFase (Escherichia coli, UniProt P08179).
T1 construct: made in house; host or cells: E. coli TX393 with multicopy plasmid pJS85, or E. coli TX635 with lambda pL plasmid pJS119 or pJS167
T1 sequence (P08179 1-212): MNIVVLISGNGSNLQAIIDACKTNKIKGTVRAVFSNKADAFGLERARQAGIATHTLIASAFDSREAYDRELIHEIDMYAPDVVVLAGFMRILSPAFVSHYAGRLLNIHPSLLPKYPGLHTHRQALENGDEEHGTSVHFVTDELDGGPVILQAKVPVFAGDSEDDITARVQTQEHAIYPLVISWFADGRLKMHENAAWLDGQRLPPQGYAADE
Briefly: E. coli GAR TFase inhibition/activity assay (5,8-dideazafolate absorbance at 295 nm). To be noted: E. coli GAR TFase, 26° C, 1 nM enzyme, saturating substrates. Type of assay: biochemical. The method, then:
(§1) All assays were carried out by following the increase of 5,8-dideazafolate absorbence at 295 nm in buffered medium at 26° C. To initiate the reaction, enzyme (1 nM final concentration) was added to a mixture of saturating substrates and variable amounts of inhibitor. A characteristic family of curves was obtained, showing slow, tight-binding inhibition. See, Morrison, Trends Biochem. Sc., 7, 102 (1982) and Morrison, et al., Adv. Enzymology, Relat. Areas Mol. Biol., 57, 201-301 (1987).
(§2) In analyzing the biological activity of the compounds of the present invention, GAR TFase from E. coli was used. This enzyme behaves like the mammalian and avian enzyme with respect to substrate specificity, yet is a simple and effective system having only one biological activity. That is, unlike the avian trifunctional GAR TFase, the E. coli species has a sole function. This follows from the genetic evidence of Smith and Daum, J. Biol. Chem., 262, 10565-10569 (1987) as w®11 as the work of Schrimsher et al., Biochemistry, 25, 4366-4371 (1986) who have shown that […] from E. coli is a monofunctional protein, whereas, in chicken it belongs to a trifunctional protein containing, the activates: GAR SYNthase, GAR TFase, and AIR SYNthase.
The E. coli GAR TFase binding constants for the compounds of the present invention and other folate analogs are shown in Table I below:
(§3) Table II illustrates the specificity of beta-TGDDF for GAR TFase in comparison with other reduced-folate utilizing enzymes. This test, was conducted using the same [I]/[E]ratios as stated previously.

For assay [2], the target named is GAR TFase (avian) (Gallus gallus, UniProt P21872). Briefly: Avian GAR TFase inhibition. Type of assay: biochemical. As to conditions: for Mode of inhibition: avian GAR TFase. The method, then: as §1
(§4) The specificity of beta-TGDDF for GAR TFase from species other than E. coli was assayed in a general manner by measuring the activity of GAR TFase at a concentration of 1 nM from avian, HeLa, and L121? sources in the presence of 20 nM beta-TGDDF.
as §3

Assay [3] concerns the target T2, GAR TFase (HeLa O) (Homo sapiens, UniProt P22102).
T2 construct: GAR TFase activity is the C-terminal domain of trifunctional GART
T2 sequence (P22102 2-1010): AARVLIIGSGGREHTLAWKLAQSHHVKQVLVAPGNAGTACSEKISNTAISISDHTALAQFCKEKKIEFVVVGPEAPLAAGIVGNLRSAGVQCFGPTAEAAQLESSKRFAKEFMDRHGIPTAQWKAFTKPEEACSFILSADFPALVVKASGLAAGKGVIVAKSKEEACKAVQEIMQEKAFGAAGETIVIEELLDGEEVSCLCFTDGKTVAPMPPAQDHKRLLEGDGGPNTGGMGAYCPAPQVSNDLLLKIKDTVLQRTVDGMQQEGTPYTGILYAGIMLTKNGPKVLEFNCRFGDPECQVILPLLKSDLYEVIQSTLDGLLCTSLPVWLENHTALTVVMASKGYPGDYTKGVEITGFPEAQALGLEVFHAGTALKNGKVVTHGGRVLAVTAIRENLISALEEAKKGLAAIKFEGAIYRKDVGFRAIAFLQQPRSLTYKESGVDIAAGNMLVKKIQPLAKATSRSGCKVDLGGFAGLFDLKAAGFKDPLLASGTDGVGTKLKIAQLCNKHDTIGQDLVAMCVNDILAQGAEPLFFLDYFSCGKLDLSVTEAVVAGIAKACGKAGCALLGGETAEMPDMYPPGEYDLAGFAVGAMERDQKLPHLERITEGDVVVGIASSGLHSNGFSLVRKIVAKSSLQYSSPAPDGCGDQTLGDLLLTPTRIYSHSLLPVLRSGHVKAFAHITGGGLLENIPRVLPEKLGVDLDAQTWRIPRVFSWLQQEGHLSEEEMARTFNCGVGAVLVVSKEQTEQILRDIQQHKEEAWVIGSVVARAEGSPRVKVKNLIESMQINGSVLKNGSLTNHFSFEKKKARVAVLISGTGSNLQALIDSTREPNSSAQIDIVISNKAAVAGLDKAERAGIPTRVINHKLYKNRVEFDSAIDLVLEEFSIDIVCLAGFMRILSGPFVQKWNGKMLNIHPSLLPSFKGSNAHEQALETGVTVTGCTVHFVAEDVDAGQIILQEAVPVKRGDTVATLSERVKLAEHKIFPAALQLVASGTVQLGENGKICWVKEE
The experiment in a line: HeLa O GAR TFase inhibition. Type of assay: biochemical. To be noted: for Mode of inhibition: HeLa O GAR TFase. Here is the method:
as §1, §4, §3
E. coli GAR TFase was prepared and purified as described below. L1210 and HeLa GAR TFase were purified according to published procedures. AICAR TFase was prepared according to published procedures.

Assay [4] concerns the target T1, E. coli GAR TFase. The experiment in a line: Fluorescence titration, dissociation constant for E. coli GAR TFase. Type of assay: binding. To be noted: average from three wavelengths (396, 400, 405 nm); standard error about 50 pM; 11 nM inhibitor, excitation 275 nm; read-out: thermodynamic dissociation constant, KD. The method, then:
The thermodynamic dissociation constant, KD, for the E.β-TGDDF complex was measured by following the enhancement of the inhibitor's 395 nm fluorescence (excitation at 275 nm) upon binding to GAR TFase. A concentrated E. coli GAR TFase solution was added to an 11 nM solution of purified β-TGDDF; for each addition, the fluorescence at three different wavelengths (396, 400, and 405 nm) was measured. Fluorescence titration data was analyzed by the method of Taira and Benkovic, J. Med. Chem., 31, 129-137 (1988).
as §2
The E. coli GAR TFase binding constants for the compounds of the present invention and other folate analogs are shown in Table I below: […]

Chain of GAR TFase (avian) (P21872 whole entry): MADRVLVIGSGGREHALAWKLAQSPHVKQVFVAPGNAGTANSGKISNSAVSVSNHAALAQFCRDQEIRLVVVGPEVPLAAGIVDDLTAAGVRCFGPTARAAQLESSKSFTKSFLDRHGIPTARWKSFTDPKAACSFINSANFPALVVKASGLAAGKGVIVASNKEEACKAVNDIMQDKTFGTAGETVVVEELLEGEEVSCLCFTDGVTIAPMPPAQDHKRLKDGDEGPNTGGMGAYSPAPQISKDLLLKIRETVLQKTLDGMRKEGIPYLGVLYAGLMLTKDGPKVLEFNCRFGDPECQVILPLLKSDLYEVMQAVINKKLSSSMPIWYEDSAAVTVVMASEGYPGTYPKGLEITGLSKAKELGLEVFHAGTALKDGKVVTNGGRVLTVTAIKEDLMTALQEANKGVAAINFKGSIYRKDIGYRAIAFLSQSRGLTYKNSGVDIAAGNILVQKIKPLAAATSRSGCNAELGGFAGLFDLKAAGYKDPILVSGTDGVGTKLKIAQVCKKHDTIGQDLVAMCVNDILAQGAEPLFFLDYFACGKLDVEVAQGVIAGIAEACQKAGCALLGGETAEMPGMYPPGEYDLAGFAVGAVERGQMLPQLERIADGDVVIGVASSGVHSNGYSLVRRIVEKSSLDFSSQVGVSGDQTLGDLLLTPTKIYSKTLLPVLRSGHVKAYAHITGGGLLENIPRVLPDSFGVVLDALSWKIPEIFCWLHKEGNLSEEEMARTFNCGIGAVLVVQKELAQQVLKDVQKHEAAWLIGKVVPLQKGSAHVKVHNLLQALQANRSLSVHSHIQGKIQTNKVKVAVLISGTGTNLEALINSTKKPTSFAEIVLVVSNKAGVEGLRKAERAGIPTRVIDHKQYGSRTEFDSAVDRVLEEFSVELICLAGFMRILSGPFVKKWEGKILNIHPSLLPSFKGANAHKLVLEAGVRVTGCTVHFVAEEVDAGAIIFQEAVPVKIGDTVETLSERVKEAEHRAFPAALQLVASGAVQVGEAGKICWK

As to `Nc1nc2ccc(CN(C(=O)CSCC(=O)N[C@@H]3O[C@H](COP(=O)(O)O)[C@@H](O)[C@H]3O)c3ccc(C(=O)N[C@@H](CCC(=O)O)C(=O)O)cc3)cc2c(=O)[nH]1` [beta-TGDDF, N^10-[5'-phosphoribosyl-1'-β-amino-carbonylmethyl-1-thioacetyl]-5,8-dideazafolate], the Mode of inhibition result in assay [1] is listed as “slow, tight-binding inhibitor”; in assay [2], “inhibition of a slow, tight binding nature”; in assay [2] (listed as Beta-TGDDF), “slow, tight-binding inhibitor”; in assay [3], “inhibition of a slow, tight binding nature”; in assay [3] (listed as Beta-TGDDF), “slow, tight-binding inhibitor”. Moreover, the Extent of inhibition entry in assay [2] (20 nM beta-TGDDF, 1 nM enzyme) is recorded as “inhibited by roughly the same magnitude”; in assay [3] (20 nM beta-TGDDF, 1 nM enzyme), “inhibited by roughly the same magnitude”. Further, the pKd in assay [4] was 9.60.

The term pKd denotes −log10 of the Kd, conventionally taken in molar units.
